According to patent US20240148821A1, “PHARMACEUTICAL USE OF CYCLIC PEPTIDE COMPOUND” (CHUGAI SEIYAKU KABUSHIKI KAISHA, priority 2021, published 2024):
Numbered stars: 1 amine (or outer) side, 2 acyl side, 3 side chain; on linkers, the order of the positions; unused ones are H or OH. Square brackets hold non-standard residues; d marks the D form. Peptide text beside a SMILES is read from it. * marks the point of attachment. hPhe(3,5-F2-4-CF3) = N[C@@H](CCc1cc(F)c(C(F)(F)F)c(F)c1)C(=O)O; hPhe(3-Cl-4-CF3) = N[C@@H](CCc1ccc(C(F)(F)F)c(Cl)c1)C(=O)O; NEtPhe(4-CF3) = CCN[C@@H](Cc1ccc(C(F)(F)F)cc1)C(=O)O; NMePhe(4-CF3) = CN[C@@H](Cc1ccc(C(F)(F)F)cc1)C(=O)O; NMedβ3hAla = C[C@H](CC(=O)[*:2])N(C)[*:1]; NMeGly(cPent) = CN[C@H](C(=O)O)C1CCCC1; Pro(4,4-F2) = O=C(O)[C@@H]1CC(F)(F)CN1; NMeCha = CN[C@@H](CC1CCCCC1)C(=O)O; Hyp = O=C(O)[C@@H]1C[C@@H](O)CN1; NMeChg = CN[C@H](C(=O)O)C1CCCCC1; N(CH2CH2)2CF2 = FC1(F)CCN(*)CC1; NMeD = CN[C@@H](CC(=O)O)C(=O)O; NMeL = CN[C@@H](CC(C)C)C(=O)O; NMeV = CN[C@H](C(=O)O)C(C)C; NMeS = CN[C@@H](CO)C(=O)O; NMeA = CN[C@@H](C)C(=O)O; NMeAib = CNC(C)(C)C(=O)O; Ac5c = NC1(C(=O)O)CCCC1; Aze = O=C(O)[C@@H]1CCN1; Ac4c = NC1(C(=O)O)CCC1; Sar = CNCC(=O)O; Propyl = CCC*

target: protein-protein interaction between Kras and SOS1 (biotin-tagged human Kras loaded with GDP, His-tagged human SOS1) (Homo sapiens (Human), UniProt P01116, G12D); experiment: Protein-protein interaction inhibition between Kras and SOS1 (KrasG12D-SOS PPI) using AlphaScreen; assay type: biochemical; conditions: AlphaScreen; biotin-tagged human Kras loaded with GDP, His-tagged human SOS1; read-out: KRAS G12D-SOS PPI IC50;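 note: kras produced in E. coli, Ni-coupled donor beads and streptavidin acceptor beads, excitation 680 nm with emission detected at 520–620 nm via singlet oxygen transfer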

Question: For `CC[C@H](C)[C@@H]1NC(=O)[C@H](C)N(C)C(=O)C[C@@H](C)N(C)C(=O)[C@H](C(C)C)N(C)C(=O)C(C)(C)N(C)C(=O)[C@@H]2CCCN2C(=O)[C@H](CCc2ccc(C(F)(F)F)c(Cl)c2)NC(=O)CN(C)C(=O)[C@H](CC2CCCCC2)N(C)C(=O)[C@@H]2CCN2C(=O)[C@H](C)N(C)C1=O` [Compound 341] (cyclo([Aze][NMeCha][Sar][hPhe(3-Cl-4-CF3)]P[NMeAib][NMeV][NMedβ3hAla][NMeA]I[NMeA])), which IC50 is on record?
Answer: The IC50 was 2.9 nM.

Question: How did the IC50 turn out when `CC[C@H](C)[C@@H]1NC(=O)[C@H](CC(C)C)N(C)C(=O)C[C@@H](C)N(C)C(=O)[C@H](C2CCCCC2)N(C)C(=O)C2(CCC2)NC(=O)[C@@H]2CC(F)(F)CN2C(=O)[C@H](CCc2ccc(C(F)(F)F)c(Cl)c2)NC(=O)CN(C)C(=O)[C@H](Cc2ccc(C(F)(F)F)cc2)N(CC)C(=O)[C@@H]2CCN2C(=O)[C@H](C)N(C)C1=O` [Compound 345] (cyclo([Ac4c][NMeChg][NMedβ3hAla][NMeL]I[NMeA][Aze][NEtPhe(4-CF3)][Sar][hPhe(3-Cl-4-CF3)][Pro(4,4-F2)])) was run?
Answer: The IC50 was 58 nM.

Question: Which IC50 does the source give for `CC[C@H](C)[C@@H]1NC(=O)[C@H](CC(C)C)N(C)C(=O)C[C@@H](C)N(C)C(=O)[C@H](C2CCCCC2)N(C)C(=O)C2(CCCC2)NC(=O)[C@@H]2CCCN2C(=O)[C@H](CCc2ccc(C(F)(F)F)c(Cl)c2)NC(=O)CN(C)C(=O)[C@H](Cc2ccc(C(F)(F)F)cc2)N(C)C(=O)[C@@H]2CCN2C(=O)[C@H](C)N(C)C1=O` [Compound 348] (cyclo([Ac5c][NMeChg][NMedβ3hAla][NMeL]I[NMeA][Aze][NMePhe(4-CF3)][Sar][hPhe(3-Cl-4-CF3)]P)) here?
Answer: The IC50 was 6 nM.

Question: For `CC[C@H](C)[C@@H]1NC(=O)[C@H](CC(C)C)N(C)C(=O)C[C@@H](C)N(C)C(=O)[C@H](C(C)C)N(C)C(=O)C2(CCCC2)NC(=O)[C@H](CC(=O)N2CCC(F)(F)CC2)N(C)C(=O)[C@H](CCc2ccc(C(F)(F)F)c(Cl)c2)NC(=O)CN(C)C(=O)[C@H](CC2CCCCC2)N(C)C(=O)CN(C)C(=O)CN(C)C1=O` [Compound 350] (cyclo([Ac5c][NMeV][NMedβ3hAla][NMeL]I[Sar][Sar][NMeCha][Sar][hPhe(3-Cl-4-CF3)][NMeD](N(CH2CH2)2CF2))), which IC50 is on record?
Answer: Its IC50 is 64 nM.

Question: `CCO[C@@H]1C[C@H]2C(=O)NC3(CCC3)C(=O)N(C)[C@@H](C3CCCCC3)C(=O)N(C)[C@H](C)CC(=O)N(C)[C@@H](CC(C)C)C(=O)N[C@@H]([C@@H](C)CC)C(=O)N(C)[C@@H](C)C(=O)N3CC[C@H]3C(=O)N(C)[C@@H](Cc3ccc(C(F)(F)F)cc3)C(=O)N(C)CC(=O)N[C@@H](CCc3cc(F)c(C(F)(F)F)c(F)c3)C(=O)N2C1` [Compound 365] (cyclo([Ac4c][NMeChg][NMedβ3hAla][NMeL]I[NMeA][Aze][NMePhe(4-CF3)][Sar][hPhe(3,5-F2-4-CF3)][Hyp](Et))) was tested. Which IC50 did it give?
Answer: The IC50 was 38 nM.

Question: Which IC50 does the source give for `CCCOC[C@H]1C(=O)N(C)CC(=O)N[C@@H](CCc2ccc(C(F)(F)F)c(Cl)c2)C(=O)N2CCC[C@H]2C(=O)NC2(CCCC2)C(=O)N(C)[C@@H](C2CCCC2)C(=O)N(C)[C@H](C)CC(=O)N(C)[C@@H](CC(C)C)C(=O)N[C@@H]([C@@H](C)CC)C(=O)N(C)[C@@H](C)C(=O)N2CC[C@H]2C(=O)N1C` [Compound 366] (cyclo([Ac5c][NMeGly(cPent)][NMedβ3hAla][NMeL]I[NMeA][Aze][NMeS](Propyl)[Sar][hPhe(3-Cl-4-CF3)]P)) here?
Answer: Its IC50 is 4 nM.

Question: `CC[C@H](C)[C@@H]1NC(=O)[C@H](CC(C)C)N(C)C(=O)C[C@@H](C)N(C)C(=O)[C@H](C2CCCCC2)N(C)C(=O)C2(CCC2)NC(=O)[C@@H]2CC(F)(F)CN2C(=O)[C@H](CCc2cc(F)c(C(F)(F)F)c(F)c2)NC(=O)CN(C)C(=O)[C@H](Cc2ccc(C(F)(F)F)cc2)N(CC)C(=O)[C@@H]2CCN2C(=O)[C@H](C)N(C)C1=O` [Compound 377] (cyclo([Ac4c][NMeChg][NMedβ3hAla][NMeL]I[NMeA][Aze][NEtPhe(4-CF3)][Sar][hPhe(3,5-F2-4-CF3)][Pro(4,4-F2)])) was tested. Which IC50 did it give?
Answer: The IC50 was 24 nM.
